Measured values published in the NIST ThermoML archive (doi:10.1021/je800110r).
Where “and” joins values, the source holds several entries; their conditions need not be identical. Equal values may be shown once.

Conditions: Liquid, Vibrating tube method

CCCCCCCCCC [decane]
Conditions	mass density
283.14 K, 21786 kPa	752.1 kg/m3
283.14 K, 21835 kPa	752.2 kg/m3
283.14 K, 21866 kPa	752.3 kg/m3
283.14 K, 22948 kPa	752.7 kg/m3
283.14 K, 22974 kPa	752.9 kg/m3
283.14 K, 23083 kPa	752.9 kg/m3
283.14 K, 24091 kPa	753.6 kg/m3
283.14 K, 24111 kPa	753.6 kg/m3
283.14 K, 24206 kPa	753.6 kg/m3
283.14 K, 25452 kPa	754.4 kg/m3
283.14 K, 27407 kPa	755.5 kg/m3
283.14 K, 27430 kPa	755.5 kg/m3
283.14 K, 27471 kPa	755.7 kg/m3
283.14 K, 27497 kPa	755.6 kg/m3
283.14 K, 27531 kPa	755.7 kg/m3
283.14 K, 27558 kPa	755.6 kg/m3
283.14 K, 27588 kPa	755.8 kg/m3
283.14 K, 29091 kPa	756.5 kg/m3
283.14 K, 29172 kPa	756.6 kg/m3
283.14 K, 29227 kPa	756.6 kg/m3
283.14 K, 29531 kPa	756.9 kg/m3
283.14 K, 29628 kPa	756.9 kg/m3
283.14 K, 29720 kPa	756.8 kg/m3
283.14 K, 29749 kPa	756.9 kg/m3
283.14 K, 29785 kPa	756.9 kg/m3
283.14 K, 29818 kPa	757 kg/m3
283.14 K, 29843 kPa	756.9 kg/m3
283.14 K, 29867 kPa	757.1 kg/m3
283.14 K, 29895 kPa	757 kg/m3
283.14 K, 29928 kPa	757.2 kg/m3
283.14 K, 29961 kPa	757 kg/m3
283.14 K, 29990 kPa	757.1 kg/m3
283.14 K, 30019 kPa	757.1 kg/m3
283.14 K, 30044 kPa	757.1 kg/m3
283.14 K, 30081 kPa	757.1 kg/m3
283.14 K, 30115 kPa	757.2 kg/m3
283.14 K, 30145 kPa	757.1 kg/m3
283.14 K, 30807 kPa	757.7 kg/m3
283.14 K, 30934 kPa	757.6 kg/m3
283.14 K, 31526 kPa	758 kg/m3
283.14 K, 31540 kPa	758 kg/m3
283.14 K, 31581 kPa	758.1 kg/m3
283.14 K, 31898 kPa	758.1 kg/m3
283.14 K, 31921 kPa	758.2 kg/m3
283.14 K, 31938 kPa	758.2 kg/m3
283.14 K, 31958 kPa	758.3 kg/m3
283.14 K, 31979 kPa	758.2 kg/m3
283.14 K, 32000 kPa	758.3 kg/m3
283.14 K, 32020 kPa	758.2 kg/m3
283.14 K, 32038 kPa	758.2 kg/m3
283.14 K, 32070 kPa	758.2 kg/m3
283.14 K, 32106 kPa	758.4 kg/m3
283.14 K, 32127 kPa	758.3 kg/m3
283.14 K, 32164 kPa	758.3 kg/m3
283.14 K, 32190 kPa	758.4 kg/m3
283.14 K, 32578 kPa	758.6 kg/m3
283.14 K, 33321 kPa	759.1 kg/m3
283.14 K, 33347 kPa	759 kg/m3
283.14 K, 33367 kPa	759 kg/m3
283.14 K, 33396 kPa	759 kg/m3
283.14 K, 33425 kPa	758.9 kg/m3
283.14 K, 33445 kPa	759 kg/m3
283.14 K, 33471 kPa	759.1 kg/m3
283.14 K, 33494 kPa	759.1 kg/m3
283.14 K, 33514 kPa	759 kg/m3
283.14 K, 34282 kPa	759.5 kg/m3
283.14 K, 34384 kPa	759.6 kg/m3
283.14 K, 34405 kPa	759.6 kg/m3
283.14 K, 34424 kPa	759.7 kg/m3
283.14 K, 34465 kPa	759.7 kg/m3
283.15 K, 312 kPa	737.7 kg/m3 and 737.6 kg/m3
283.15 K, 314 kPa	737.5 kg/m3
283.15 K, 361 kPa	737.6 kg/m3
283.15 K, 417 kPa	737.6 kg/m3
283.15 K, 446 kPa	737.8 kg/m3
283.15 K, 603 kPa	737.9 kg/m3
283.15 K, 1468 kPa	738.4 kg/m3
283.15 K, 1599 kPa	738.6 kg/m3
283.15 K, 1655 kPa	738.6 kg/m3
283.15 K, 1727 kPa	738.5 kg/m3
283.15 K, 1798 kPa	738.8 kg/m3
283.15 K, 1897 kPa	738.7 kg/m3
283.15 K, 1959 kPa	738.9 kg/m3
283.15 K, 2028 kPa	738.8 kg/m3
283.15 K, 2118 kPa	738.9 kg/m3
283.15 K, 2175 kPa	739 kg/m3
283.15 K, 2229 kPa	739 kg/m3
283.15 K, 2291 kPa	739.1 kg/m3
283.15 K, 2327 kPa	739.1 kg/m3
283.15 K, 2370 kPa	739 kg/m3
283.15 K, 2425 kPa	739.1 kg/m3
283.15 K, 2520 kPa	739.2 kg/m3
283.15 K, 2614 kPa	739.3 kg/m3
283.15 K, 2634 kPa	739.3 kg/m3
283.15 K, 2647 kPa	739.4 kg/m3
283.15 K, 2708 kPa	739.4 kg/m3
283.15 K, 2730 kPa	739.4 kg/m3
283.15 K, 2749 kPa	739.3 kg/m3
283.15 K, 2767 kPa	739.4 kg/m3
283.15 K, 2789 kPa	739.4 kg/m3
283.15 K, 2807 kPa	739.5 kg/m3
283.15 K, 2822 kPa	739.5 kg/m3
283.15 K, 2835 kPa	739.4 kg/m3
283.15 K, 2864 kPa	739.6 kg/m3
283.15 K, 3136 kPa	739.7 kg/m3
283.15 K, 3226 kPa	739.7 kg/m3
283.15 K, 3273 kPa	739.9 kg/m3
283.15 K, 3287 kPa	739.8 kg/m3
283.15 K, 3296 kPa	739.8 kg/m3
283.15 K, 3307 kPa	739.9 kg/m3
283.15 K, 3341 kPa	739.9 kg/m3
283.15 K, 3352 kPa	739.8 kg/m3
283.15 K, 3361 kPa	739.8 kg/m3
283.15 K, 3373 kPa	739.9 kg/m3
283.15 K, 3380 kPa	740 kg/m3
283.15 K, 3390 kPa	739.9 kg/m3
283.15 K, 3400 kPa	739.8 kg/m3
283.15 K, 3408 kPa	740 kg/m3
283.15 K, 3417 kPa	739.9 kg/m3
283.15 K, 3426 kPa	740 kg/m3
283.15 K, 3434 kPa	739.9 kg/m3
283.15 K, 3443 kPa	739.8 kg/m3
283.15 K, 3452 kPa	740 kg/m3
283.15 K, 3461 kPa	739.9 kg/m3
283.15 K, 3471 kPa	740 kg/m3
283.15 K, 3485 kPa	740 kg/m3
283.15 K, 3496 kPa	739.9 kg/m3
283.15 K, 3507 kPa	740.1 kg/m3
283.15 K, 3517 kPa	740 kg/m3
283.15 K, 3528 kPa	739.9 kg/m3
283.15 K, 3539 kPa	740 kg/m3
283.15 K, 3552 kPa	740 kg/m3
283.15 K, 3563 kPa	740.1 kg/m3
283.15 K, 3575 kPa	740 kg/m3
283.15 K, 3586 kPa	740.2 kg/m3
283.15 K, 3601 kPa	740 kg/m3
283.15 K, 3612 kPa	740.1 kg/m3
